# Measured values taken from US20070082339A1, “Methods and compositions for screening for HDAC inhibitory activity” (priority 2005, published 2007).
# Test system: A549 cells
# Test: Microarray analysis of gene expression after LAQ824 treatment
# Format: cell-based, human
# Details: A549, 500 nM vs DMSO
# Procedure: The human lung carcinoma cell line A549 is obtained from the American Type Culture Collection (Rockville, Md.) and cultured in F-12K (ATCC, Manassas, Va.), 10% fetal bovine serum, and 1% penicillin/streptomycin (Life Technologies, Inc.). LAQ824 (Novartis) is added directly to the cell medium at a final concentration of 500 nM. Microarray analysis is performed essentially as described previously (Welsh, 2001). Total RNA is prepared from A549 cells treated with LAQ 824 or DMSO for 0.5, 2, 6, 12 and 24 h. Labelled cDNA is prepared and hybridized to Affymetrix U133 oligonucleotide GeneChip® (Affymetrix, Santa Clara, Calif.). The arrays were scanned on an Affymetrix GeneArray scanner and analyzed with GENECHIP Microarray Analysis Suite 5.0 software (MAS5) (Affymetrix). The data (raw data including image files and scanner files (Cel. Files) as well as the MAS5 normalized data are stored in the DEMON Database. The MAS5 normalized data are exported from the database and analyzed using GeneSpring software version 6.1. The genes are filtered for a minimal expression of 100 in at least one condition (the condition being defined as the average the value for the 3 samples corresponding to a given time point and a treatement) The gene expression changes (fold change) are calculated for each time point (t) as follow: (Gene expression level LAQ824 treated—(Average of the 3 replicates) Time (t))/(Gene expression level DMSO treated—(Average of the 3 replicates) Time (t)).
# Any fold change <0 indicated a down regulation or reduction of the mRNA production, any fold change >0 indicated an up regulation or increase of mRNA production. Genes are filtered according to the fold change and the statistical significance of the changes (1-way-ANOVA test p<0.05)).
smiles,measurement,setting,value
"O=C(/C=C/c1ccc(CN(CCO)CCc2c[nH]c3ccccc23)cc1)NO [LAQ824, N-Hydroxy-3-[4-[[(2-hydroxyethyl)[2-(1H-indol-3-yl)-ethyl]-amino]methyl]phenyl]-2E-2-propenamide]",Fold change AMP-activated protein kinase family member 5 (ARK5) 204589_at,2 h,−1.1 fold
same,"Fold change ANP32B acidic (leucine-rich) nuclear phosphoprotein 32 family, member B (SSP29) 201305_x_at",2 h,−1.3 fold
same,"Fold change AVEN apoptosis, caspase activation inhibitor (Aven) 219366_at",2 h,−1.2 fold
same,Fold change B-cell CLL/lymphoma 3 (BCL3) 204908_s_at,2 h,−1.9 fold
same,"Fold change BAI1-associated protein 2 (BAP2, IRSp53) 205293_x_at",2 h,1.4 fold
same,"Fold change BAI1-associated protein 3 (BAP3, KIAA0734) 204874_x_at",2 h,1.0 fold
same,"Fold change BAI1-associated protein 3 (BAP3, KIAA0734) 216356_x_at",2 h,2.3 fold
same,Fold change BCL2-associated athanogene 2 (BAG-2) 209406_at,2 h,−1.4 fold
same,"Fold change BCL2-interacting killer (apoptosis-inducing) (BP4, NBK, BIP1) 205780_at",2 h,2.0 fold
same,Fold change BCL2-like 1 (BCL2L1) 206665_s_at,2 h,−1.2 fold
same,Fold change BH3 interacting domain death agonist (BID) 204493_at,2 h,1.1 fold
same,"Fold change Cyclin A2 (CCN1, CCNA) 203418_at",2 h,−1.3 fold
same,"Fold change Cyclin-dependent kinase inhibitor 2D (p19, inhibits CDK4) (INK4D) 210240_s_at",2 h,1.9 fold
same,Fold change DEC1-anti apoptosis (BHLHB2) 201169_s_at,2 h,−3.2 fold
same,Fold change Diphtheria toxin receptor (heparin-binding epidermal growth factor-like growth factor) (DTR) 203821_at,2 h,9.8 fold
same,"Fold change Early growth response 1 (TIS8, NGFI-A, KROX-24, ZIF-268) 201694_s_at",2 h,1.4 fold
same,Fold change GMCL germ cell-less homolog (Drosophila) (GMCL) 218458_at,2 h,1.7 fold
same,Fold change Katanin p80 (WD40-containing) subunit B 1 (KAT) 203163_at,2 h,1.5 fold
same,"Fold change NACHT, leucine rich repeat and PYD containing 1 (PP1044) 218380_at",2 h,2.8 fold
same,Fold change Paternally expressed Gene 10 (PEG10) 212092_at,2 h,1.1 fold
same,Fold change Paternally expressed Gene 10 (PEG10) 212094_at,2 h,1.1 fold
same,Fold change Protein regulator of cytokinesis 1 (PRC1) 218009_s_at,2 h,−1.2 fold
same,Fold change SKAP55 protein 216899_s_at,2 h,1.0 fold
same,"Fold change Secreted frizzled-related protein 1 (FRP, SARP2) 202036_s_at",2 h,1.1 fold
same,"Fold change Secreted frizzled-related protein 1 (FRP, SARP2) 202037_s_at",2 h,1.1 fold
same,Fold change Serine/threonine kinase 6 (AIK) 208079_s_at,2 h,1.0 fold
same,Fold change Tribbles homolog 3a (TRIB3) 218145_at,2 h,−1.3 fold
same,"Fold change Tumor necrosis factor receptor superfamily, member 6 (TNFRSF6) 215719_x_at",2 h,−1.3 fold
same,"Fold change Tumor necrosis factor receptor superfamily, member 6 (TNFRSF6) 216252_x_at",2 h,−1.3 fold
same,Fold change Tumor protein p53 (Li-Fraumeni syndrome) 201746_at,2 h,1.1 fold
same,Fold change Tumor protein p53 (Li-Fraumeni syndrome) 211300_s_at,2 h,1.1 fold
same,Fold change member of the N-myc downregulated gene family (NDRG4) 209159_s_at,2 h,1.2 fold
same,Fold change AMP-activated protein kinase family member 5 (ARK5) 204589_at,6 h,−4.3 fold
same,"Fold change ANP32B acidic (leucine-rich) nuclear phosphoprotein 32 family, member B (SSP29) 201305_x_at",6 h,−1.6 fold
same,"Fold change AVEN apoptosis, caspase activation inhibitor (Aven) 219366_at",6 h,−1.5 fold
same,Fold change B-cell CLL/lymphoma 3 (BCL3) 204908_s_at,6 h,−10.5 fold
same,"Fold change BAI1-associated protein 2 (BAP2, IRSp53) 205293_x_at",6 h,6.2 fold
same,"Fold change BAI1-associated protein 3 (BAP3, KIAA0734) 204874_x_at",6 h,5.1 fold
same,"Fold change BAI1-associated protein 3 (BAP3, KIAA0734) 216356_x_at",6 h,11.1 fold
same,Fold change BCL2-associated athanogene 2 (BAG-2) 209406_at,6 h,−2.4 fold
same,"Fold change BCL2-interacting killer (apoptosis-inducing) (BP4, NBK, BIP1) 205780_at",6 h,6.3 fold
same,Fold change BCL2-like 1 (BCL2L1) 206665_s_at,6 h,−4.2 fold
same,Fold change BH3 interacting domain death agonist (BID) 204493_at,6 h,−1.9 fold
same,"Fold change Cyclin A2 (CCN1, CCNA) 203418_at",6 h,−2.3 fold
same,"Fold change Cyclin-dependent kinase inhibitor 2D (p19, inhibits CDK4) (INK4D) 210240_s_at",6 h,4.9 fold
same,Fold change DEC1-anti apoptosis (BHLHB2) 201169_s_at,6 h,−4.5 fold
same,Fold change Diphtheria toxin receptor (heparin-binding epidermal growth factor-like growth factor) (DTR) 203821_at,6 h,8.5 fold
same,"Fold change Early growth response 1 (TIS8, NGFI-A, KROX-24, ZIF-268) 201694_s_at",6 h,3.6 fold
same,Fold change GMCL germ cell-less homolog (Drosophila) (GMCL) 218458_at,6 h,4.1 fold
same,Fold change Katanin p80 (WD40-containing) subunit B 1 (KAT) 203163_at,6 h,2.9 fold
same,"Fold change NACHT, leucine rich repeat and PYD containing 1 (PP1044) 218380_at",6 h,7.6 fold
same,Fold change Paternally expressed Gene 10 (PEG10) 212092_at,6 h,2.0 fold
same,Fold change Paternally expressed Gene 10 (PEG10) 212094_at,6 h,1.9 fold
same,Fold change Protein regulator of cytokinesis 1 (PRC1) 218009_s_at,6 h,−1.9 fold
same,Fold change SKAP55 protein 216899_s_at,6 h,1.6 fold
same,"Fold change Secreted frizzled-related protein 1 (FRP, SARP2) 202036_s_at",6 h,1.6 fold
same,"Fold change Secreted frizzled-related protein 1 (FRP, SARP2) 202037_s_at",6 h,1.8 fold
same,Fold change Serine/threonine kinase 6 (AIK) 208079_s_at,6 h,−2.0 fold
same,Fold change Tribbles homolog 3a (TRIB3) 218145_at,6 h,−4.6 fold
same,"Fold change Tumor necrosis factor receptor superfamily, member 6 (TNFRSF6) 215719_x_at",6 h,−3.2 fold
same,"Fold change Tumor necrosis factor receptor superfamily, member 6 (TNFRSF6) 216252_x_at",6 h,−2.9 fold
same,Fold change Tumor protein p53 (Li-Fraumeni syndrome) 201746_at,6 h,−1.9 fold
same,Fold change Tumor protein p53 (Li-Fraumeni syndrome) 211300_s_at,6 h,−1.6 fold
same,Fold change member of the N-myc downregulated gene family (NDRG4) 209159_s_at,6 h,2.8 fold
